According to patent US6737383B1, “Herbicidal oxadiazolidines” (priority 1999, dated 2004):

Columns and labels:
blackgrass [1] = test: Test B pre/postemergence blackgrass; type: in vivo, Alopecurus myosuroides
Method in brief: (§1)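 Herbicidal effect was estimated by eye on a ten-point control scale after plants spent twelve to sixteen days in a greenhouse following soil or foliar treatment. Foliar sprays targeted plants at one to four leaves; all doses were formulated in a non-phytotoxic solvent with surfactant.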

crabgrass = test: Test B pre/postemergence crabgrass; type: in vivo, Digitaria sanguinalis; settings: for Crabgrass plant response rating: scale of 0 to 10 where 0 is no effect and 10 is complete control
Method in brief: as §1

morningglory = test: Test B pre/postemergence morningglory; type: in vivo, Ipomoea hederacea; settings: for Morningglory plant response rating: scale of 0 to 10 where 0 is no effect and 10 is complete control
Method in brief: as §1

bamyardgrass = test: Test B flood test barnyardgrass; type: in vivo, Echinochloa crus-galli; settings: for Plant response rating, Barnyardgrass (0 to 10 scale, 0 is no effect, 10 is complete control): visual evaluation after twelve to sixteen days
Method in brief: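 Plants were grown to the 2-leaf stage before treatment with test chemical, then held in a greenhouse for twelve to sixteen days. Injury was visually rated against untreated controls on a 0–10 scale, where 0 is no effect and 10 is complete control.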

winter wheat [2] = test: Test E winter wheat; type: in vivo, Triticum aestivum; settings: Postemergence
Method in brief: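 Plants were grown under normal greenhouse practice; for postemergence, in sandy loam soil mixed 60:40 with potting mix, treated at the 1- to 4-leaf stage. The compound was in a non-phytotoxic solvent carrying a surfactant. After roughly 21 to 28 days plants were scored visually against untreated plants.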

blackgrass [3] = test: Test E blackgrass; type: in vivo, Alopecurus myosuroides; settings: Preemergence
green foxtail = test: Test E green foxtail; type: in vivo, Setaria viridis; settings: Preemergence
Italian ryegrass = test: Test E Italian ryegrass; type: in vivo, Lolium multiflorum; settings: Preemergence
winter wheat [4] = test: Test E winter wheat; type: in vivo, Triticum aestivum; settings: Preemergence
wild oat = test: Test E wild oat; type: in vivo, Avena fatua; settings: Preemergence
winter barley = test: Test E winter barley; type: in vivo, Hordeum vulgare; settings: Preemergence
[5] = Postemergence, Rate 125 g/ha, scale 0 to 10, 0 is no effect, 10 is complete control
[6] = Preemergence, Rate 62 g/ha, scale 0 to 10 (0 no effect, 10 complete control)
[7] = Preemergence, Rate 250 g/ha, scale of 0 to 10 where 0 is no effect and 10 is complete control
[8] = Preemergence, Rate 500 g/ha, scale of 0 to 10 where 0 is no effect and 10 is complete control
[9] = Rate 62 g/ha, Postemergence, scale of 0 to 10 where 0 is no effect and 10 is complete control
[10] = Rate 250 g/ha, Postemergence, scale of 0 to 10 where 0 is no effect and 10 is complete control
[11] = Rate 500 g/ha, Postemergence, scale 0 to 10, 0 no effect, 10 complete control
[12] = Rate 62 g/ha, flood test species, Pre-emergence
[13] = Rate 125 g/ha, Pre-emergence, flood test species, scale 0 to 10 where 0 is no effect and 10 is complete control
[14] = Rate 250 g/ha, Pre-emergence, flood-test species, scale 0 to 10, 0 is no effect, 10 is complete control
[15] = Rate 500 g/ha, Pre-emergence, flood test species, scale 0 to 10 (0 no effect, 10 complete control)
[16] = Rate 250 g/ha, 0 to 100 scale, 0 is no effect, 100 is complete control
[17] = Rate 500 g/ha, 0 to 100 scale, 0 is no effect, 100 is complete control
[18] = Rate 500 g/ha, 0 to 100 scale (0 no effect, 100 complete control)
[19] = Rate 1000 g/ha, 0 to 100 scale, 0 no effect, 100 complete control
[20] = Rate 250 g/ha, 0 to 100 scale, 0 no effect, 100 complete control
[21] = Rate 125 g/ha, 0 to 100 scale (0 no effect, 100 complete control)

Compound: CC(C)N(C(=O)n1oc(=O)n(C2CCCCCC2)c1=O)c1ccccc1 [Compound 341]
- Plant response rating, Blackgrass (blackgrass [1]; [5]): 0
- Plant response rating, Blackgrass (blackgrass [1]; [6]): 0
- Blackgrass plant response rating (0 to 10 scale) (blackgrass [1]; Preemergence, Rate 125 g/ha): 2
- Blackgrass plant response rating (blackgrass [1]; [7]): 6
- Blackgrass plant response rating (blackgrass [1]; [8]): 7
- Blackgrass plant response rating (blackgrass [1]; [9]): 0
- Plant response rating, Blackgrass (blackgrass [1]; [10]): 2
- Plant response rating, Blackgrass (blackgrass [1]; [11]): 2
- Plant response rating, Crabgrass (crabgrass; [5]): 0
- Plant response rating, Crabgrass (crabgrass; [6]): 2
- Crabgrass plant response rating (0 to 10 scale) (crabgrass; Preemergence, Rate 125 g/ha): 2
- Crabgrass plant response rating (crabgrass; Preemergence, Rate 250 g/ha): 2
- Crabgrass plant response rating (crabgrass; Preemergence, Rate 500 g/ha): 8
- Crabgrass plant response rating (crabgrass; Rate 62 g/ha, Postemergence): 0
- Plant response rating, Crabgrass (crabgrass; [11]): 2
- Plant response rating, Morningglory (morningglory; [5]): 7
- Plant response rating, Morningglory (morningglory; [6]): 0
- Morningglory plant response rating (0 to 10 scale) (morningglory; Preemergence, Rate 125 g/ha): 0
- Morningglory plant response rating (morningglory; Preemergence, Rate 250 g/ha): 0
- Morningglory plant response rating (morningglory; Preemergence, Rate 500 g/ha): 0
- Morningglory plant response rating (morningglory; Rate 62 g/ha, Postemergence): 7
- Plant response rating, Morningglory (morningglory; [11]): 10
- Plant response rating, Barnyardgrass (0 to 10 scale, 0 is no effect, 10 is complete control) (bamyardgrass; [12]): 2
- Barnyardgrass plant response rating (bamyardgrass; [13]): 8
- Barnyardgrass plant response rating (bamyardgrass; [14]): 9
- Barnyardgrass plant response rating (bamyardgrass; [15]): 9
- Plant response rating, Wheat (winter) (winter wheat [2]; [16]): 70
- Plant response rating, Wheat (winter) (winter wheat [2]; Rate 1000 g/ha, 0 to 100 scale where 0 is no effect and 100 is complete control): 65
- Plant response rating, Wheat (winter) (winter wheat [2]; [17]): 65
- Plant response rating, Blackgrass (blackgrass [3]; Rate 250 g/ha, 0 to 100 scale): 40
- Plant response rating, Blackgrass (blackgrass [3]; [18]): 60
- Plant response rating, Blackgrass (blackgrass [3]; [19]): 90
- Plant response rating, Green foxtail (green foxtail; Rate 250 g/ha, 0 to 100 scale): 25
- Plant response rating, Green foxtail (green foxtail; [18]): 55
- Plant response rating, Green foxtail (green foxtail; [19]): 85
- Plant response rating, I. Ryegrass (Italian ryegrass; Rate 250 g/ha, 0 to 100 scale): 50
- Plant response rating, I. Ryegrass (Italian ryegrass; [18]): 55
- Plant response rating, I. Ryegrass (Italian ryegrass; [19]): 55
- Plant response rating, Wheat (winter) (winter wheat [4]; Rate 250 g/ha, 0 to 100 scale): 40
- Plant response rating, Wheat (winter) (winter wheat [4]; [18]): 50
- Plant response rating, Wheat (winter) (winter wheat [4]; [19]): 85
- Plant response rating, Wild oat (wild oat; Rate 250 g/ha, 0 to 100 scale): 60
- Plant response rating, Wild oat (wild oat; [18]): 70
- Plant response rating, Wild oat (wild oat; [19]): 80
- Plant response rating, Barley (winter) (winter barley; [20]): 70
- Plant response rating, Barley (winter) (winter barley; [18]): 60
- Plant response rating, Barley (winter) (winter barley; [19]): 80

Compound: CC(C)N(C(=O)n1oc(=O)n(C2CCC2)c1=O)c1ccc(F)cc1 [Compound 350]
- Plant response rating, Blackgrass (blackgrass [1]; [5]): 4
- Plant response rating, Blackgrass (blackgrass [1]; [6]): 4
- Blackgrass plant response rating (0 to 10 scale) (blackgrass [1]; Preemergence, Rate 125 g/ha): 5
- Blackgrass plant response rating (blackgrass [1]; [7]): 8
- Blackgrass plant response rating (blackgrass [1]; [8]): 8
- Blackgrass plant response rating (blackgrass [1]; [9]): 4
- Plant response rating, Blackgrass (blackgrass [1]; [10]): 7
- Plant response rating, Blackgrass (blackgrass [1]; [11]): 7
- Plant response rating, Crabgrass (crabgrass; [5]): 1
- Plant response rating, Crabgrass (crabgrass; [6]): 8
- Crabgrass plant response rating (0 to 10 scale) (crabgrass; Preemergence, Rate 125 g/ha): 8
- Crabgrass plant response rating (crabgrass; Preemergence, Rate 250 g/ha): 10
- Crabgrass plant response rating (crabgrass; Preemergence, Rate 500 g/ha): 10
- Crabgrass plant response rating (crabgrass; Rate 62 g/ha, Postemergence): 1
- Plant response rating, Crabgrass (crabgrass; [11]): 7
- Plant response rating, Morningglory (morningglory; [5]): 6
- Plant response rating, Morningglory (morningglory; [6]): 0
- Morningglory plant response rating (0 to 10 scale) (morningglory; Preemergence, Rate 125 g/ha): 0
- Morningglory plant response rating (morningglory; Preemergence, Rate 250 g/ha): 0
- Morningglory plant response rating (morningglory; Preemergence, Rate 500 g/ha): 2
- Morningglory plant response rating (morningglory; Rate 62 g/ha, Postemergence): 3
- Plant response rating, Morningglory (morningglory; [11]): 9
- Plant response rating, Barnyardgrass (bamyardgrass; Postemergence (flood test), Rate 125 g/ha, scale 0 to 10, 0 is no effect, 10 is complete control): 0
- Barnyardgrass plant response rating (bamyardgrass; Rate 62 g/ha, Postemergence (flood test species), scale of 0 to 10 where 0 is no effect and 10 is complete control): 0
- Plant response rating, Barnyardgrass (0 to 10 scale, 0 is no effect, 10 is complete control) (bamyardgrass; [12]): 0
- Barnyardgrass plant response rating (bamyardgrass; [13]): 0
- Plant response rating, Barnyardgrass (bamyardgrass; Rate 250 g/ha, Postemergence (flood test species), scale of 0 to 10 where 0 is no effect and 10 is complete control): 3
- Barnyardgrass plant response rating (bamyardgrass; [14]): 0
- Plant response rating, Barnyardgrass (bamyardgrass; Rate 500 g/ha, listed under Postemergence (flood test species), scale 0 to 10, 0 no effect, 10 complete control): 5
- Barnyardgrass plant response rating (bamyardgrass; [15]): 0
- Plant response rating, Wheat (winter) (winter wheat [2]; Rate 125 g/ha, 0 to 100 scale, 0 is no effect, 100 is complete control): 50
- Plant response rating, Wheat (winter) (winter wheat [2]; [16]): 30
- Plant response rating, Wheat (winter) (winter wheat [2]; [17]): 40
- Plant response rating, Blackgrass (blackgrass [3]; [21]): 50
- Plant response rating, Blackgrass (blackgrass [3]; Rate 250 g/ha, 0 to 100 scale): 30
- Plant response rating, Blackgrass (blackgrass [3]; [18]): 60
- Plant response rating, Green foxtail (green foxtail; [21]): 65
- Plant response rating, Green foxtail (green foxtail; Rate 250 g/ha, 0 to 100 scale): 55
- Plant response rating, Green foxtail (green foxtail; [18]): 85
- Plant response rating, I. Ryegrass (Italian ryegrass; [21]): 60
- Plant response rating, I. Ryegrass (Italian ryegrass; Rate 250 g/ha, 0 to 100 scale): 90
- Plant response rating, I. Ryegrass (Italian ryegrass; [18]): 85
- Plant response rating, Wheat (winter) (winter wheat [4]; [21]): 40
- Plant response rating, Wheat (winter) (winter wheat [4]; Rate 250 g/ha, 0 to 100 scale): 40
- Plant response rating, Wheat (winter) (winter wheat [4]; [18]): 50
- Plant response rating, Wild oat (wild oat; [21]): 40
- Plant response rating, Wild oat (wild oat; Rate 250 g/ha, 0 to 100 scale): 60
- Plant response rating, Wild oat (wild oat; [18]): 65
- Plant response rating, Barley (winter) (winter barley; [21]): 5
- Plant response rating, Barley (winter) (winter barley; [20]): 10
- Plant response rating, Barley (winter) (winter barley; [18]): 25
